The assay addresses ATR kinase (Homo sapiens (Human), UniProt Q13535). In words: ATR Inhibition Assay (radioactive-phosphate incorporation). The format is biochemical. The note with it: Ki(app); 5 nM full-length ATR, 10 μM [γ-33P]ATP, 800 μM target peptide, 25° C. As to the method: Compounds were screened for their ability to inhibit ATR kinase using a radioactive-phosphate incorporation assay. Assays were carried out in a mixture of 50 mM Tris/HCl (pH 7.5), 10 mM MgCl2 and 1 mM DTT. Final substrate concentrations were 10 μM [γ-33P]ATP (3mCi 33P ATP/mmol ATP, Perkin Elmer) and 800 μM target peptide (ASELPASQPQPFSAKKK).
Assays were carried out at 25° C. in the presence of 5 nM full-length ATR. An assay stock buffer solution was prepared containing all of the reagents listed above, with the exception of ATP and the test compound of interest. 13.5 μL of the stock solution was placed in a 96 well plate followed by addition of 2 μL of DMSO stock containing serial dilutions of the test compound (typically starting from a final concentration of 15 μM with 3-fold serial dilutions) in duplicate (final DMSO concentration 7%). The plate was pre-incubated for 10 minutes at 25° C. and the reaction initiated by addition of 15 μL [γ-33P]ATP (final concentration 10 μM).
The reaction was stopped after […] by the addition of 30 μL 0.1M phosphoric acid containing 2 mM ATP. […]
After removing mean background values for all of the data points, Ki(app) data were calculated from non-linear regression analysis of the initial rate data using the Prism software package (GraphPad Prism version 3.0cx for Macintosh, GraphPad Software, San Diego, Calif., USA).

Sequence of ATR kinase (Q13535 whole entry): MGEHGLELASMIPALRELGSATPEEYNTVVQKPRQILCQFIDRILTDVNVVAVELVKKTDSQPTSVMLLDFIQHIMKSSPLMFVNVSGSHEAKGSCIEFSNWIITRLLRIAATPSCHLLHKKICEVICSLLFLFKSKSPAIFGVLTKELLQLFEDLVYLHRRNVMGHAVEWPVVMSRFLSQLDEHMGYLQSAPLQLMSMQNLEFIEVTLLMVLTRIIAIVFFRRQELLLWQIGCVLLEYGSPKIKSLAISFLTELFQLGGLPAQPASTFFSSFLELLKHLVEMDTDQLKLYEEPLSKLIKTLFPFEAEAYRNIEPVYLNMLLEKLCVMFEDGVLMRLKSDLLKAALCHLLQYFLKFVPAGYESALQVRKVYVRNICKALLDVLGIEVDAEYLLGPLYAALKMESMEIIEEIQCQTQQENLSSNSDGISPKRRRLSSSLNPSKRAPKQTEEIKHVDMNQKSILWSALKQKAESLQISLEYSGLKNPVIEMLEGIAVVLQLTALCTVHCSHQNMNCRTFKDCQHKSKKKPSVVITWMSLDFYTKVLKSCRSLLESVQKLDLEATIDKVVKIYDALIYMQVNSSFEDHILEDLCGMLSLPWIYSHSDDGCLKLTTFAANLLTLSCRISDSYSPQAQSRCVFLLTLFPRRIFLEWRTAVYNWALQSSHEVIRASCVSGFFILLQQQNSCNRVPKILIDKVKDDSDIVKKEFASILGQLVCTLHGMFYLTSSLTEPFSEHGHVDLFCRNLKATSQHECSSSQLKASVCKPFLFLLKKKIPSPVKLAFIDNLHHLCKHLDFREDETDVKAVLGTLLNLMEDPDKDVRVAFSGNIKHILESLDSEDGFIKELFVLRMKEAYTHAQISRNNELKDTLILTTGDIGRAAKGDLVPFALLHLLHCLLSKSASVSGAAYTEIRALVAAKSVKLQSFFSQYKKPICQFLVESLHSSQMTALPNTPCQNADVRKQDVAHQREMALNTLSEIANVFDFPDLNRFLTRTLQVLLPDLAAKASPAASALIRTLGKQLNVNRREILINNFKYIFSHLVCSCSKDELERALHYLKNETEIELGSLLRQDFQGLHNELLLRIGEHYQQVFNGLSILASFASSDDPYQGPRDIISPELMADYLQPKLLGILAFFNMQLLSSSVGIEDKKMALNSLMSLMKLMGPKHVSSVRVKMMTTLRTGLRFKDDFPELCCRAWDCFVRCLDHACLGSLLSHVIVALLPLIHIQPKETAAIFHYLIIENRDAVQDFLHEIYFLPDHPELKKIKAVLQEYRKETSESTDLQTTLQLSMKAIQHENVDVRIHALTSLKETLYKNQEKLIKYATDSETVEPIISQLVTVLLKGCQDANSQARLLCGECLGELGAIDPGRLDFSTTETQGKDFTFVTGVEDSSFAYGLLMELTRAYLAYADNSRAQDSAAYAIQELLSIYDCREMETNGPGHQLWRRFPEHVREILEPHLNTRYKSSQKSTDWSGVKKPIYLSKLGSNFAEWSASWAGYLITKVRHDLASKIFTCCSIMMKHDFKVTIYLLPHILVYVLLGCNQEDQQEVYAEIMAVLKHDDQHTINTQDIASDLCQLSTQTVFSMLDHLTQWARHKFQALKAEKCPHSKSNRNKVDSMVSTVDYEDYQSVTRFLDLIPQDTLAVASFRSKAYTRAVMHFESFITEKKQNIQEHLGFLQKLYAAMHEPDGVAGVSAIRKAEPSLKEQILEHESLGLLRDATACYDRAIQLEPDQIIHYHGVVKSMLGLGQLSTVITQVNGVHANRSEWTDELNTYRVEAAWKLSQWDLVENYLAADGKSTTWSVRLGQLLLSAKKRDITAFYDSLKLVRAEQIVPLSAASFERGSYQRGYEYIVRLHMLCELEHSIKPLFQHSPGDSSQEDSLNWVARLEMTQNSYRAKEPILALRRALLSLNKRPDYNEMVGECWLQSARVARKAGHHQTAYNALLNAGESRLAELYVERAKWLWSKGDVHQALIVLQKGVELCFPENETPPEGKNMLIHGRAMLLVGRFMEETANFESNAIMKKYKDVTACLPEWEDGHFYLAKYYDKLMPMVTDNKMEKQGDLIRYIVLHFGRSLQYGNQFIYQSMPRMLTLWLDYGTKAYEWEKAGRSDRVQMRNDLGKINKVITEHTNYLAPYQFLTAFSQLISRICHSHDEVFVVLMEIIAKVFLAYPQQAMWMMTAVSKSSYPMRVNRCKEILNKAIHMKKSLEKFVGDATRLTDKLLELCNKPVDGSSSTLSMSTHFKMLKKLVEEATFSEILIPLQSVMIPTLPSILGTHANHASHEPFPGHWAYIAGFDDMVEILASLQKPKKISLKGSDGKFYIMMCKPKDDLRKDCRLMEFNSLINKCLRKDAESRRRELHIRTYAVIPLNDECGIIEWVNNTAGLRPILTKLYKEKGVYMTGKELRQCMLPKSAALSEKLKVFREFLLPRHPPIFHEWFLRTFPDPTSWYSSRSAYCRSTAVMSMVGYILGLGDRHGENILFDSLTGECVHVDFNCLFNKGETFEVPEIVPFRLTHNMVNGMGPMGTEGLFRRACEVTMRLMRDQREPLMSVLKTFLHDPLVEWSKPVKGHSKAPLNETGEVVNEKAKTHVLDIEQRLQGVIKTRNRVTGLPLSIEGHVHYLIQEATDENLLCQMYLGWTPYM

Regarding `CC(C)S(=O)(=O)c1ccc(-c2cnc(N)c(C3CC(c4ccccc4)=NO3)n2)cc1` (stereo not shown) [Compound I-1, 5-(4-(isopropylsulfonyl)phenyl)-3-(3-phenyl-4,5-dihydroisoxazol-5-yl)pyrazin-2-amine], the Ki turned out to be 0.016 µM.

For the origin of these results see US8841450B2, “Compounds useful as inhibitors of ATR kinase” (Vertex Pharmaceuticals Incorporated, priority 2011, dated 2014).
